# Results taken from article PMC12279193 (Advanced Science, 2025).
# pKd: −log10 of the molar value.
# What was measured:
# [1] = target: SARS-CoV S-trimer protein (Severe acute respiratory syndrome-related coronavirus, UniProt P59594); assay: biochemical; assay type: binding
# [2] = target: MERS-CoV S-trimer protein (Betacoronavirus England 1, UniProt K9N5Q8); assay: biochemical; assay type: binding
# Chain of MERS-CoV S-trimer protein (K9N5Q8 18-1294 limits assumed): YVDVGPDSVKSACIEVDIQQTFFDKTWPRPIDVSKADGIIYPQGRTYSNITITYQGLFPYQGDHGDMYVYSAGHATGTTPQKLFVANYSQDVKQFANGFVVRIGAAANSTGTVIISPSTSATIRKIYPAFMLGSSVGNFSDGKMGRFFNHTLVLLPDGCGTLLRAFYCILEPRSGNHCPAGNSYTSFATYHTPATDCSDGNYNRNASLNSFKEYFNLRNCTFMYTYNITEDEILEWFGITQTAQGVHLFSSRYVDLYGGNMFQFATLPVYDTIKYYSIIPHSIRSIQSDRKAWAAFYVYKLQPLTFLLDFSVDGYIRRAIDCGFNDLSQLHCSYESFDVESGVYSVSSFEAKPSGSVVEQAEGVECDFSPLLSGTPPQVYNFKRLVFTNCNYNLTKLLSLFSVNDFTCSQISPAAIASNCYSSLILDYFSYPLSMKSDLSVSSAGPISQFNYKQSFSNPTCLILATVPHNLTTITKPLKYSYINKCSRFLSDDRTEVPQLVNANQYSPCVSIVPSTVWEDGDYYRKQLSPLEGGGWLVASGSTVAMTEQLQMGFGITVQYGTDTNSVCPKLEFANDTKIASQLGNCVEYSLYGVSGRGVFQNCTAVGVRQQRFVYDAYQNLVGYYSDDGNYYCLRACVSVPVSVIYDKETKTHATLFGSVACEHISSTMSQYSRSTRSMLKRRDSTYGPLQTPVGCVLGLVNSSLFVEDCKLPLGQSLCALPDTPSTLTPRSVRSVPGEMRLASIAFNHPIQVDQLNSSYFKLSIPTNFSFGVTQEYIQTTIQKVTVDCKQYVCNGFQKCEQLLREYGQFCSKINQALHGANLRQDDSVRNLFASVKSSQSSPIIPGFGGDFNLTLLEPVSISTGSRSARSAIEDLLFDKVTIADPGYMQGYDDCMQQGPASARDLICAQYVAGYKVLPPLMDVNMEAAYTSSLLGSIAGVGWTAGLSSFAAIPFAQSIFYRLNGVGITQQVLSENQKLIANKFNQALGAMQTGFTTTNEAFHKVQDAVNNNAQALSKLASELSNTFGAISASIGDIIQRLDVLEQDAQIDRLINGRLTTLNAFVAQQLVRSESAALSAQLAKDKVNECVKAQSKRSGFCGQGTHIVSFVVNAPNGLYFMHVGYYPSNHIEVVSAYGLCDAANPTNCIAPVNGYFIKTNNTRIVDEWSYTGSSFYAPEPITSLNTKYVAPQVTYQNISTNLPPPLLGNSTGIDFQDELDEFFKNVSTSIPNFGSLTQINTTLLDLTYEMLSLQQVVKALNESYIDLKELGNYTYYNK
structure (smiles),measurement,setting,value
CN(/N=C/c1ccccc1C(=O)O)c1nc(-c2ccccc2Cl)cs1 [S416],pKd,[1],4.57
same,pKd,[2],4.26
